Source: ChEMBL document CHEMBL4483862, “Open-source discovery of chemical leads for next-generation chemoprotective antimalarials” (2018)
pIC50: −log10 of the molar value.

Tested on: Plasmodium berghei
Assay: Luciferase/luciferin-expressing antifolate-resistant parasites were used to infect a culture of HepG2 cells that were pre-incubated with compounds. Infected hepatocytes emit light due to the luciferase reaction. Assay results are presented as the percent inhibition of light emission compared to control. […]
Type: functional
Conditions: sporozoite; for IC90: read-out: LUCIFERASE INFECTION ASSAY - IC90

| SMILES | IC90 [µM] | other results |
| --- | --- | --- |
| CC(C)(C)c1cc(CCC(=O)NNC(=S)NC(=O)c2ccccc2)cc(C(C)(C)C)c1O | 3.76 | pIC50 (HEPG2TOX_HILL_SLOPE 3.85, HEPG2TOX_R_SQUARED 0.996, PBLUC_HILL_SLOPE 11.4, PBLUC_R_SQUARED 0.664, read-out: LUCIFERASE INFECTION ASSAY - IC50): 5.51 |
| Cc1ccc(C(C)C)c(Oc2nnnn2-c2ccccc2)c1 | 4.38 | pIC50 (HEPG2TOX_HILL_SLOPE 3.94, HEPG2TOX_R_SQUARED 0.78, PBLUC_HILL_SLOPE 282, PBLUC_R_SQUARED 0.16, read-out: LUCIFERASE INFECTION ASSAY - IC50): 5.36 |
| CC(C)Nc1ccc(Nc2ccccc2)cc1 | 3.79 | pIC50 (HEPG2TOX_HILL_SLOPE 3.79, HEPG2TOX_R_SQUARED 0.984, PBLUC_HILL_SLOPE 20.8, PBLUC_R_SQUARED 0.712, read-out: LUCIFERASE INFECTION ASSAY - IC50): 5.47 |
| O=C1C(Cl)=C(Nc2ccccc2)C(=O)c2ccccc21 | > 11.6 | pIC50 (HEPG2TOX_HILL_SLOPE 3.85, HEPG2TOX_R_SQUARED 0.988, PBLUC_HILL_SLOPE 1.86, PBLUC_R_SQUARED 0.682, read-out: LUCIFERASE INFECTION ASSAY - IC50): 5.42 |
| Cc1cccc(NC2=C(Cl)C(=O)c3ccccc3C2=O)c1 | 1.4 | pIC50 (HEPG2TOX_HILL_SLOPE 3.88, HEPG2TOX_R_SQUARED 0.992, PBLUC_HILL_SLOPE 14.7, PBLUC_R_SQUARED 0.858, read-out: LUCIFERASE INFECTION ASSAY - IC50): 5.92 |
| CNc1nc2cnc(Nc3ccc(C(C)C)cc3)cc2n1-c1cc(OC)c(OC)c(OC)c1 | > 10 | pIC50 (HEPG2TOX_HILL_SLOPE 3.92, HEPG2TOX_R_SQUARED 0.032, PBLUC_HILL_SLOPE 0.581, PBLUC_R_SQUARED 0.333, read-out: LUCIFERASE INFECTION ASSAY - IC50): < 5.00 |
| COc1ccc(/C=C2\CSc3ccc(Cl)cc3C2=O)cc1 | 5.42 | pIC50 (HEPG2TOX_HILL_SLOPE 3.81, HEPG2TOX_R_SQUARED 0.977, PBLUC_HILL_SLOPE 10.6, PBLUC_R_SQUARED 0.089, read-out: LUCIFERASE INFECTION ASSAY - IC50): 5.36 |
| CC(C)CCCC(C)C1CCC2(C)C3=C(CCC12C)C1(C)CCC(=O)C(C)(C)C1CC3 (configuration not stated) | 6.57 | pIC50 (HEPG2TOX_HILL_SLOPE 3.93, HEPG2TOX_R_SQUARED 0.974, PBLUC_HILL_SLOPE 2.18, PBLUC_R_SQUARED 0.307, read-out: LUCIFERASE INFECTION ASSAY - IC50): 5.62 |
| Cc1ccc(Nc2ccc(-c3nc4ccccc4[nH]3)cn2)cc1C | 4.25 | pIC50 (HEPG2TOX_HILL_SLOPE 3.79, 0.829, HEPG2TOX_R_SQUARED 0.701, 0.968, PBLUC_HILL_SLOPE 2.85, 14.2, PBLUC_R_SQUARED 0.393, 0.513, read-out: LUCIFERASE INFECTION ASSAY - IC50): 5.64 |
| COc1ccc(-c2csc3ncnc(Sc4nnnn4CC4CCCO4)c23)cc1 (configuration not stated) | > 10 | pIC50 (HEPG2TOX_HILL_SLOPE 3.82, HEPG2TOX_R_SQUARED 0.683, PBLUC_HILL_SLOPE 2.52, PBLUC_R_SQUARED 0.576, read-out: LUCIFERASE INFECTION ASSAY - IC50): 5.19 |
| O=C(NC1CCCC1)c1ccc(-c2cn3c(-c4ccc(Cl)cc4)cnc3cn2)cc1 | 3.49 | pIC50 (HEPG2TOX_HILL_SLOPE 3.94, HEPG2TOX_R_SQUARED 0.381, PBLUC_HILL_SLOPE 3.66, PBLUC_R_SQUARED 0.738, read-out: LUCIFERASE INFECTION ASSAY - IC50): 5.72 |
| Cc1cc(Cl)c(C)c(S(=O)(=O)N(C)C(C)c2ccc(S(N)(=O)=O)cc2)c1Cl (configuration not stated) | > 10 | pIC50 (HEPG2TOX_HILL_SLOPE 3.91, HEPG2TOX_R_SQUARED 0.817, PBLUC_HILL_SLOPE 1.91, PBLUC_R_SQUARED 0.506, read-out: LUCIFERASE INFECTION ASSAY - IC50): 5.16 |
| COc1ccc(O)c(/C=N/Nc2ncc(C(F)(F)F)cc2Cl)c1 | 3.73 | pIC50 (HEPG2TOX_HILL_SLOPE 3.8, HEPG2TOX_R_SQUARED 0.813, PBLUC_HILL_SLOPE 18.3, PBLUC_R_SQUARED 0.305, read-out: LUCIFERASE INFECTION ASSAY - IC50): 5.48 |
| CCOc1ccccc1NS(=O)(=O)c1ccc(C(=O)OC)cc1 | > 10 | pIC50 (HEPG2TOX_HILL_SLOPE 3.9, HEPG2TOX_R_SQUARED 0.853, PBLUC_HILL_SLOPE 3.26, PBLUC_R_SQUARED 0.571, read-out: LUCIFERASE INFECTION ASSAY - IC50): 5.12 |
| O=C(Nc1ccccc1O)c1ccccc1NS(=O)(=O)c1ccc(Cl)s1 | 7.2 | pIC50 (HEPG2TOX_HILL_SLOPE 3.8, HEPG2TOX_R_SQUARED 0.66, PBLUC_HILL_SLOPE 5.25, PBLUC_R_SQUARED 0.554, read-out: LUCIFERASE INFECTION ASSAY - IC50): 5.32 |
| CCCCNC(=O)NC(=O)CNc1cc(S(=O)(=O)N2CCCCC2)ccc1OCC | > 10 | pIC50 (HEPG2TOX_HILL_SLOPE 3.87, HEPG2TOX_R_SQUARED 0.807, PBLUC_HILL_SLOPE 2.62, PBLUC_R_SQUARED 0.78, read-out: LUCIFERASE INFECTION ASSAY - IC50): 5.30 |

| SMILES | IC90 [µM] | other results |
| --- | --- | --- |
| COc1cccc(-c2cnn3ccc(Nc4ccc(OC)nc4)nc23)c1 | 3.86 | pIC50 (HEPG2TOX_HILL_SLOPE 3.92, HEPG2TOX_R_SQUARED 0.974, PBLUC_HILL_SLOPE 24.4, PBLUC_R_SQUARED 0.48, read-out: LUCIFERASE INFECTION ASSAY - IC50): 5.45 |
| CC(C)c1ccc(N2C(=O)/C(=C\c3ccccc3OCc3ccccn3)NC2=S)cc1 | 3.92 | pIC50 (HEPG2TOX_HILL_SLOPE 3.89, HEPG2TOX_R_SQUARED 0.964, PBLUC_HILL_SLOPE 2.57, PBLUC_R_SQUARED 0.661, read-out: LUCIFERASE INFECTION ASSAY - IC50): 5.78 |
| COc1ccccc1Nc1ncccc1C(=O)Nc1nc2ccccc2[nH]1 | 3.78 | pIC50 (HEPG2TOX_HILL_SLOPE 3.87, HEPG2TOX_R_SQUARED 0.988, PBLUC_HILL_SLOPE 17.6, PBLUC_R_SQUARED 0.638, read-out: LUCIFERASE INFECTION ASSAY - IC50): 5.48 |
| C=C1CC2(C)C(=CC1=O)CCC1C2CCC2(C)C(O)CCC12 (configuration not stated) | 5.89 | pIC50 (HEPG2TOX_HILL_SLOPE 3.95, HEPG2TOX_R_SQUARED 0.554, PBLUC_HILL_SLOPE 10.4, PBLUC_R_SQUARED 0.356, read-out: LUCIFERASE INFECTION ASSAY - IC50): 5.32 |
| C[C@]12CC[C@H](O)C[C@H]1CCC1C2[C@H](O)C[C@]2(C)[C@@H](C3=CC(=O)OC3)CC[C@]12O (some centres not stated) | > 8.45 | pIC50 (HEPG2TOX_HILL_SLOPE 3.83, HEPG2TOX_R_SQUARED 0.791, PBLUC_HILL_SLOPE 2.47, PBLUC_R_SQUARED 0.389, read-out: LUCIFERASE INFECTION ASSAY - IC50): 5.40 |
| COc1ccc(CNc2ccc3ncc(-c4ccc(Cl)cc4)n3n2)cc1 | 4.67 | pIC50 (HEPG2TOX_HILL_SLOPE 3.82, HEPG2TOX_R_SQUARED 0.951, PBLUC_HILL_SLOPE 9.74, PBLUC_R_SQUARED 0.491, read-out: LUCIFERASE INFECTION ASSAY - IC50): 5.43 |
| CC(C)c1ccc(Nc2ccn3ncc(-c4cccc(N)c4)c3n2)cc1 | > 9.61 | pIC50 (HEPG2TOX_HILL_SLOPE 3.91, HEPG2TOX_R_SQUARED 0.953, PBLUC_HILL_SLOPE 9.39, PBLUC_R_SQUARED 0.444, read-out: LUCIFERASE INFECTION ASSAY - IC50): 5.10 |
| CN(C)Cc1ccc(CNC(=O)Cc2ccc(-c3ccccc3)cc2)cc1 | 7.76 | pIC50 (HEPG2TOX_HILL_SLOPE 3.86, HEPG2TOX_R_SQUARED 0.943, PBLUC_HILL_SLOPE 3.55, PBLUC_R_SQUARED 0.451, read-out: LUCIFERASE INFECTION ASSAY - IC50): 5.38 |
| Cn1nnnc1Sc1ccc([N+](=O)[O-])c2cnccc12 | 3.42 | pIC50 (HEPG2TOX_HILL_SLOPE 3.78, HEPG2TOX_R_SQUARED 0.957, PBLUC_HILL_SLOPE 12.7, PBLUC_R_SQUARED 0.328, read-out: LUCIFERASE INFECTION ASSAY - IC50): 5.54 |
| N#CC(C#N)=NNc1ccc(-c2ccccc2)cc1 | > 10 | pIC50 (HEPG2TOX_HILL_SLOPE 3.84, HEPG2TOX_R_SQUARED 0.689, PBLUC_HILL_SLOPE 2.62, PBLUC_R_SQUARED 0.817, read-out: LUCIFERASE INFECTION ASSAY - IC50): 5.33 |
| CNc1cc(-c2ccc(O)cc2C)nc2ccnn12 | 8.61 | pIC50 (HEPG2TOX_HILL_SLOPE 3.86, HEPG2TOX_R_SQUARED 0.988, PBLUC_HILL_SLOPE 1.91, PBLUC_R_SQUARED 0.706, read-out: LUCIFERASE INFECTION ASSAY - IC50): 5.56 |
| CNc1snc(C)c1C(=O)N(C)Cc1ccc(C(C)C)cc1 | 0.0634 | pIC50 (HEPG2TOX_HILL_SLOPE 3.83, HEPG2TOX_R_SQUARED 0.742, PBLUC_HILL_SLOPE 1.58, PBLUC_R_SQUARED 0.865, read-out: LUCIFERASE INFECTION ASSAY - IC50): 7.80 |
| CCCNC(=O)c1c(NC(=O)c2ccc(CC)cc2)nc2ccccn12 | 3.4 | pIC50 (HEPG2TOX_HILL_SLOPE 3.85, HEPG2TOX_R_SQUARED 0.726, PBLUC_HILL_SLOPE 11.9, PBLUC_R_SQUARED 0.398, read-out: LUCIFERASE INFECTION ASSAY - IC50): 5.55 |
| COc1ccc(CC(=O)NCc2ccccc2Cl)cc1 | > 11.4 | pIC50 (HEPG2TOX_HILL_SLOPE 3.79, HEPG2TOX_R_SQUARED 0.83, read-out: LUCIFERASE INFECTION ASSAY - IC50): < 4.94 |
| COc1cc(Nc2ccn3ncc(-c4ccc(N)cc4)c3n2)cc(OC)c1OC | 3.83 | pIC50 (HEPG2TOX_HILL_SLOPE 3.9, HEPG2TOX_R_SQUARED 0.655, PBLUC_HILL_SLOPE 12, PBLUC_R_SQUARED 0.445, read-out: LUCIFERASE INFECTION ASSAY - IC50): 5.50 |
